Laboratory results: patent US5582814A, “1-(p-n-butylbenzyl) DTPA for magnetic resonance imaging” (Metasyn, Inc., priority 1994, dated 1996)

Experiments:
[1] = Relaxivity in rat liver cytosol; format: biochemical; conditions: 20 MHz, 37° C.; Gd(III) complexes in rat liver cytosol
Description: The relaxivity of the Gd(III) complexes in cytosol was measured at 37 ° C. using a Bruker 20MHz Minispec equipped with a variable temperature probe. The inversion-recovery pulse sequence with 10 data points was used for T1 measurements. 1/T1 relaxation rates of solutions with varying concentrations of the chelates (0.01-0.5 mM) were determined. The limiting slope of the 1/T1 vs concentration plot at low concentrations of the chelates in units of s^-1 mM^-1 was taken as the relaxivity (R1) of the chelate in cytosol.
Higher relaxivity values imply higher binding affinity to cytosolic proteins and/or greater relaxivity when bound.

[2] = Rat liver uptake of 153Gd-labeled chelates; format: in vivo, Sprague Dawley rat; conditions: 50 μmol/kg tail vein
Description: Un-anesthetized adult male Sprague Dawley rats (200-300 g) were injected in the tail vein with 50 μmol/kg of gadolinium chelate labeled with ^153 Gd. Rats (approx. 3 per time period) were euthanized by cervical dislocation (while anesthetized by CO2) at 1, 5 and 30 min. post-injection. The liver was analyzed for ^153 Gd concentration using a gamma counter. The percentage of the injected dose (% ID) in the liver was determined for each time point and the integrated area under the mean liver % ID time curve (AUC) was calculated.

[3] = in vivo
Description: Anesthetized (pentobarbital, 35 mg/kg, ip.) adult rabbits (2.5-4 kg) were administered 50 μmol/kg of a ^153 Gd-labeled chelate (approximately30 μCi/kg) via a cannulated marginal ear vein. Rabbits (1 per compound) were positioned supine under a gamma camera set with a photo peak energy of 100 keV +/- 20% and equipped with a low energy parallel hole collimator. Immediately after chelate administration, dynamic planar whole body scintigraphy was performed every five minutes for at least one hour. Images were acquired in a 64×64 matrix, and region of interest (ROI) analysis was performed using the Image 1.52 software package (National Institutes of Health). Percent injected does (% ID) in the liver at 5 min. intervals was calculated by dividing the counts in the liver ROI by the total counts in the body.

[4] = 1/T1 relaxation rates of excised rat liver; format: in vivo, Sprague Dawley rat; conditions: 50 μmol/kg tail vein, 20 MHz, 37° C.
Description: Rats (approx. 3 per time period) were euthanized by cervical dislocation (while anesthetized by CO2) at 1, 5 and 30 min. post-injection. […] The percentage of the injected dose (% ID) in the liver was determined for each time point and the integrated area under the mean liver % ID time curve (AUC) was calculated.
For the 5 min. time period, the 1/T1 proton relaxation rate of the excised liver was measured at 20MHz and 37° C. as described above. Higher 1/T1 values are associated with greater MRI signal intensity on T1 -weighted images and are due to greater liver uptake of the agent and/or greater relaxivity in the microenvironments of the liver.

[5] = Biliary excretion in monkeys; conditions: monkey, n = 2, 50 μmol/kg iv bolus
Description: Two adult male cynomolgus monkeys used for scintigraphic imaging were injected on different days with iv bolus of 50 μmol/kg of the chelates labeled with ^153 Gd (approximately 40 μCi/kg). Following completion of the imaging study, the animals were placed in metabolic cages and their total urine void and excreted feces were measured using a gamma counter at 24 and 48 hr post compound administration.

[6] = Liver and bile specificity relative to structurally similar contrast agents (summary statement); format: in vivo; conditions: relative to structurally similar contrast agents previously disclosed
Text: Thus, this invention provides a method for tissue-specific contrast enhancement of MR images of mammalian organs and tissues. In particular, the method allows for contrast enhancement of MR images of the hepatobiliary system. […] MS-264 can also be used for tissue-specific imaging of tumors and the blood pool.

In the case of `O=C(O)CN(CCN(CC(=O)O)CC(Cc1ccccc1)N(CC(=O)O)CC(=O)O)CC(=O)O` (centres unmarked) [1-(benzyl)], the “R1 in liver cytosol (relaxivity)” value [1] is reported as 11.7 s⁻¹ mM⁻¹ and the “Area under the % inj. dose in rat liver vs time curve (AUC) from 0 to 30 min” value (shortened to “Area under the % inj. dose in rat liver”) [2] is reported as 213.

In the case of `CC(C)c1ccc(CC(CN(CCN(CC(=O)O)CC(=O)O)CC(=O)O)N(CC(=O)O)CC(=O)O)cc1` (centres unmarked) [1-(p-isopropylbenzyl)], the “Area under the % inj. dose in rabbit liver vs time curve (AUC) from 0 to 30 min” value [3] is reported as 910, the “R1 in liver cytosol (relaxivity)” value [1] is reported as 18.7 s⁻¹ mM⁻¹ and the “1/T1 of excised rat liver 5 min. post-inj.” value [4] is reported as 10.9 ± 1.2 s⁻¹. For the same compound, the “Area under the % inj. dose in rat liver” value [2] was 400.

With `CCc1ccc(CC(CN(CCN(CC(=O)O)CC(=O)O)CC(=O)O)N(CC(=O)O)CC(=O)O)cc1` (centres unmarked) [1-(p-ethylbenzyl)] the “Area under the % inj. dose in rabbit liver vs time curve (AUC) from 0 to 30 min” value [3] was 553, the “% of recovered activity in feces (biliary excretion) of monkeys over 48 hr” value [5] was 48 ± 10% and the “R1 in liver cytosol (relaxivity)” value [1] was 16.4 s⁻¹ mM⁻¹. For the same compound, the “1/T1 of excised rat liver 5 min. post-inj.” value [4] was 12.3 ± 0.9 s⁻¹ and the “Area under the % inj. dose in rat liver” value [2] was 469.

In the case of “gadolinium(III)-1-(p-n-butylbenzyl)diethylenetriamine pentaacetate dimeglumine salt [MS-264]”, the “Area under the % inj. dose in rabbit liver vs time curve (AUC) from 0 to 30 min” value [3] is reported as 1120, the “R1 in liver cytosol (relaxivity)” value [1] is reported as 23.8 s⁻¹ mM⁻¹ and the “1/T1 of excised rat liver 5 min. post-inj.” value [4] is reported as 14.6 ± 0.2 s⁻¹. The “Area under the % inj. dose in rat liver” value [2] was 491 and the “liver and bile specificity” value [6] was “surprisingly superior liver and bile specificity”.

In the case of “diethylenetriamine pentaacetic acid [DTPA]”, the “R1 in liver cytosol (relaxivity)” value [1] is reported as 7.1 s⁻¹ mM⁻¹, the “1/T1 of excised rat liver 5 min. post-inj.” value [4] is reported as 4.64 ± 0.16 s⁻¹ and the “Area under the % inj. dose in rat liver” value [2] is reported as 35.

With `Cc1ccc(CC(CN(CCN(CC(=O)O)CC(=O)O)CC(=O)O)N(CC(=O)O)CC(=O)O)c(C)c1` (centres unmarked) [1-(2,4-di-Me-benzyl)] the “R1 in liver cytosol (relaxivity)” value [1] was 15.3 s⁻¹ mM⁻¹, the “1/T1 of excised rat liver 5 min. post-inj.” value [4] was 10.2 ± 0.6 s⁻¹ and the “Area under the % inj. dose in rat liver” value [2] was 404.

In the case of `CCOc1ccc(C[C@@H](CN(CCN(CC(=O)O)CC(=O)O)CC(=O)O)N(CC(=O)O)CC(=O)O)cc1` [1-(p-ethoxybenzyl)], the “Area under the % inj. dose in rabbit liver vs time curve (AUC) from 0 to 30 min” value [3] is reported as 480, the “% of recovered activity in feces (biliary excretion) of monkeys over 48 hr” value [5] is reported as 35 ± 3% and the “R1 in liver cytosol (relaxivity)” value [1] is reported as 14.4 s⁻¹ mM⁻¹. For the same compound, the “1/T1 of excised rat liver 5 min. post-inj.” value [4] was 10.1 ± 1.5 s⁻¹ and the “Area under the % inj. dose in rat liver” value [2] was 408.

In the case of `O=C(O)CN(CCN(CC(=O)O)CC(=O)O)CCN(CC(=O)O)C(COCc1ccccc1)C(=O)O` (centres unmarked) [BOPTA], the “R1 in liver cytosol (relaxivity)” value [1] is reported as 11.3 s⁻¹ mM⁻¹.

For `O=C(O)CN(CCN(CC(=O)O)CC(CCc1ccccc1)N(CC(=O)O)CC(=O)O)CC(=O)O` (centres unmarked) [1-(phenylethyl)], the “R1 in liver cytosol (relaxivity)” value [1] was 13.6 s⁻¹ mM⁻¹.
